Test results taken from patent publication EP0025288A1, “Derivatives of monic acid, processes for their preparation, compositions containing them and their preparation” (priority 1979, dated 1981).
Converted amounts (≈) assume the structure as drawn.

Legend:
Strep dysgalaciae SPD1 = assay: MIC, veterinary bacteria; format: cell-based; settings: veterinary bacteria (Table 2), read-out: MIC
Bord bronchisptica BO9 = assay: MIC, veterinary bacteria; format: cell-based; settings: veterinary bacteria (Table 2), read-out: MIC
[1] = test system: Erysipelothrix rhusiopathiae NCTC 8163; assay: MIC, veterinary bacteria; format: cell-based; settings: NCTC8163, veterinary bacteria (Table 2), read-out: MIC
Staph aureus Oxford = assay: MIC, veterinary bacteria; format: cell-based; settings: Staphylococcus aureus, veterinary bacteria (Table 2), read-out: MIC
M fermentans MWKL4 = assay: MIC, anti-mycoplasmal, Friis' broth microtiter method; format: cell-based; settings: read-out: in vitro MIC, BROTH
M pulmonis JB = assay: as above; format: cell-based; settings: read-out: in vitro MIC, BROTH
Past multocida PA1 = assay: MIC, veterinary bacteria; format: cell-based; settings: veterinary bacteria (Table 2), read-out: MIC
[2] = test system: Staph aureus 152 (pen sens); assay: MIC, veterinary bacteria; format: cell-based; settings: Staphylococcus aureus, veterinary bacteria (Table 2), read-out: MIC
[3] = Serum binding by ultrafiltration; format: in vitro ADME, pig; settings: pig, serum, compounds at 8 mcg/ml, microbiological assay (B. subtilis ATCC 6633), read-out: % bound to pig serum (converted)
Description: Serum binding was assessed by ultrafiltration of procine serum containing compounds at 8 mcg/ml, and through an Amicon CF50A ultrafiltration cone. Separation of ultrafiltrate was achieved by centrifugation.

E coli E1 = assay: MIC, veterinary bacteria; format: cell-based; settings: veterinary bacteria (Table 2), read-out: MIC
S typhimurium S18 = assay: MIC, veterinary bacteria; format: cell-based; settings: veterinary bacteria (Table 2), read-out: MIC
Strep agalactiae SPA1 = assay: MIC, veterinary bacteria; format: cell-based; settings: veterinary bacteria (Table 2), read-out: MIC
[4] = test system: Corynebacterium pyogenes CY1; assay: MIC, veterinary bacteria; format: cell-based; settings: veterinary bacteria (Table 2), read-out: MIC
[5] = test system: Staph aureus B4 (pen resis); assay: MIC, veterinary bacteria; format: cell-based; settings: Staphylococcus aureus, veterinary bacteria (Table 2), read-out: MIC
E coli NCTC 10418 = assay: MIC, veterinary bacteria; format: cell-based; settings: veterinary bacteria (Table 2), read-out: MIC
[6] = test system: Strep suis (group D) SPS11; assay: MIC, veterinary bacteria; format: cell-based; settings: veterinary bacteria (Table 2), read-out: MIC
Bord bronchiseptica BO8 = assay: MIC, veterinary bacteria; format: cell-based; settings: veterinary bacteria (Table 2), read-out: MIC
[7] = Mean serum concentration in neonatal piglets after intramuscular or oral administration; format: in vivo; settings: pig, 50 mg/kg; for concentration at 1 h: 60'
Description: e) Mean serum concentration in neonatal piglets of Examples 4 and 5 after intramuscular or oral administration at 50 mg/kg
Blood levels were assessed in neonatal piglets (2 to 4 animals per group and man bodyweights about 2 kg). The dose was 50 mg/kg (dose solution = 25 mg/ml in 25% ethanol). Doses were given by intramuscular injection and orally by stomach tube. Piglets were bled at intervals up to 8 and at 24 hours, and serum assayed microbiologically (B. subtilis ATCC 6633).

M dispar H225 = assay: MIC, anti-mycoplasmal, Friis' broth microtiter method; format: cell-based; settings: read-out: in vitro MIC, BROTH
Past Haemolytica PA5 = assay: MIC, veterinary bacteria; format: cell-based; settings: veterinary bacteria (Table 2), read-out: MIC
M suipneumoniae Str 11 = assay: MIC, anti-mycoplasmal, Friis' broth microtiter method; format: cell-based; settings: read-out: in vitro MIC, BROTH
M pneumoniae ATCC 15492 = assay: as above; format: cell-based; settings: read-out: in vitro MIC, BROTH
[8] = test system: M suipneumoniae J2206/183b; assay: as above; format: cell-based; settings: read-out: in vitro MIC, BROTH
S dublin S7 = assay: MIC, veterinary bacteria; format: cell-based; settings: veterinary bacteria (Table 2), read-out: MIC
Strep uberis SPU1 = assay: MIC, veterinary bacteria; format: cell-based; settings: veterinary bacteria (Table 2), read-out: MIC
M dispar NCTC 10125 = assay: MIC, anti-mycoplasmal, Friis' broth microtiter method; format: cell-based; settings: read-out: in vitro MIC, BROTH
M pneumoniae 427a = assay: as above; format: cell-based; settings: read-out: in vitro MIC, BROTH
Past multocida PA2 = assay: MIC, veterinary bacteria; format: cell-based; settings: veterinary bacteria (Table 2), read-out: MIC

CC(=CC(=O)OCCCC(=O)c1cccs1)CC1OCC(CC2OC2C(C)C(C)O)C(O)C1O (centres unmarked) [Example 4, 4(1-Thienyl-2-ylbutan-1-onyl) monate A]
MIC (Strep dysgalaciae SPD1): 0.156 µg/mL (≈ 0.314 µM)
MIC (Bord bronchisptica BO9): 5 µg/mL (≈ 10.1 µM)
MIC [1]: 20 µg/mL (≈ 40.3 µM)
MIC (Staph aureus Oxford): 0.156 µg/mL (≈ 0.314 µM)
MIC (M fermentans MWKL4): < 0.02 µg/mL
MIC (M pulmonis JB): < 0.02 µg/mL
MIC (Past multocida PA1): 0.312 µg/mL (≈ 0.628 µM)
MIC [2]: 0.156 µg/mL (≈ 0.314 µM)
fraction unbound [3]: 0.012
MIC (E coli E1): > 80 µg/mL
MIC (S typhimurium S18): > 80 µg/mL
MIC (Strep agalactiae SPA1): 0.312 µg/mL (≈ 0.628 µM)
MIC [4]: > 80 µg/mL
MIC [5]: 0.156 µg/mL (≈ 0.314 µM)
MIC (E coli NCTC 10418): > 80 µg/mL
MIC [6]: 2.5 µg/mL (≈ 5.03 µM)
MIC (Bord bronchiseptica BO8): 40 µg/mL (≈ 80.5 µM)
concentration at 10 min ([7]; im): 9000 ng/mL
concentration at 20 min ([7]; im): 8900 ng/mL
concentration at 40 min ([7]; im): 10000 ng/mL
concentration at 1 h ([7]; im): 8500 ng/mL
concentration at 2 h ([7]; im): 3300 ng/mL
concentration at 3 h ([7]; im): 1900 ng/mL
concentration at 4 h ([7]; im): 1600 ng/mL
concentration at 6 h ([7]; im): 830 ng/mL
concentration at 8 h ([7]; im): 710 ng/mL
concentration at 24 h ([7]; im): < 120 ng/mL
concentration at 10 min ([7]; po): 5300 ng/mL
concentration at 20 min ([7]; po): 5500 ng/mL
concentration at 40 min ([7]; po): 6500 ng/mL
concentration at 1 h ([7]; po): 5700 ng/mL
concentration at 2 h ([7]; po): 2400 ng/mL
concentration at 3 h ([7]; po): 1400 ng/mL
concentration at 4 h ([7]; po): 1400 ng/mL
concentration at 6 h ([7]; po): 770 ng/mL
concentration at 8 h ([7]; po): 740 ng/mL
concentration at 24 h ([7]; po): 150 ng/mL
MIC (M dispar H225): < 0.02 µg/mL
MIC (Past Haemolytica PA5): 5 µg/mL (≈ 10.1 µM)
MIC (M suipneumoniae Str 11): 0.078 µg/mL (≈ 0.157 µM)
MIC (M pneumoniae ATCC 15492): 0.312 µg/mL (≈ 0.628 µM)
MIC [8]: 0.078 µg/mL (≈ 0.157 µM)
MIC (S dublin S7): > 80 µg/mL
MIC (Strep uberis SPU1): < 0.019 µg/mL
MIC (M dispar NCTC 10125): 0.039 µg/mL (≈ 0.0785 µM)
MIC (M pneumoniae 427a): 0.312 µg/mL (≈ 0.628 µM)
MIC (Past multocida PA2): 0.07 µg/mL (≈ 0.141 µM)
